Here are results for one molecule from patent US8933019B2, “Antiviral cell-penetrating peptides” (priority 2008, dated 2015).

Bridge positions count the residues as written; N and C are the ends. Square brackets hold non-standard residues; d marks the D form. Peptide text beside a SMILES is read from it. S5 = C=CCCC[C@](C)(N)C(=O)O

A short description of data set [1]: Cytotoxicity, XTT method, PBMC. The conditions noted are these: human. Format: cell-based. The protocol: (§1) Cytotoxicity of peptides in MT-2 cells and PBMC was measured by the XTT [(sodium 3′-(1-(phenylamino)-carbonyl)-3,4-tetrazolium-bis(4-methoxy-6-nitro) bezenesulfonic acid hydrate)] method as previously described (Jiang et al., 2004). Briefly, for MT-2 cells, 100 μl of a peptide at graded concentrations was added to an equal volume of cells (1×10^5 cells/ml) in 96-well plates followed by incubation at 37° C. for 4 days, which ran parallel to the neutralization assay in MT-2 (except medium was added instead of virus). In the case of PBMC, 5×10^5 cells/ml were used and the cytotoxicity was measured after 7 days. After addition of XTT (PolySciences, Inc.), the soluble intracellular formazan was quantitated colorimetrically at 450 nm 4 hr later with a reference at 620 nm. The percent of cytotoxicity and the CC50 values were calculated as above (Table 2 and Table 3).
On the technique in general: Tetrazolium assays rely on reduction of a dye to a coloured formazan, in cell work by metabolically active cells.

The nature of data set [2]: Cytotoxicity, XTT method, MT-2 cells. The note with it: human, read-out: CC50 (μM) ± SD, cytotoxicity in MT-2 cells. Type of data set: cell-based, human. The protocol: as §1
In data set [3] the test system is MT-2 cells. The data set is described as follows: Cytotoxicity, XTT method, MT-2 cells. Format: cell-based, human. The note with it: 4 days. How it is done:
as §1

Data set [4] deals with HIV-1RF/L-323-12-3. The note with it: read-out: IC50 (μM ± SD), HIV-1RF/L-323-12-3; PR-resistant isolate, subtype B, MT-2, coreceptor X4.
Data set [5] concerns HIV-1 SF2. The conditions noted are these: read-out: IC50 (μM ± SD), HIV-1 SF2; laboratory strain, subtype B, MT-2, coreceptor R5X4.
The subject of data set [6] is HIV-1 IIIB. In words: Release and infectivity of HIV-1 virus released from infected MT-2 cells after treatment. Format: cell-based. The note with it: lower dose 6.25 μg/ml, normalized for p24, TCID50. The protocol:
On the fourth day post-infection, the supernatants were collected and filtered with a 0.45 μm PVDF membrane. One aliquot of the supernatants from each sample was mixed 1:1 with a solution of 5% Triton X-100 for p24 quantification, and stored at 4° C., another aliquot was immediately frozen at −80° C. and used to compare the infectivity of the viral particles released by NYAD-201 and NYAD-202 treated cells to the viral particles released by untreated cells. The protein p24 was first quantified by sandwich-ELISA, then the viral samples were normalized for the p24 content and titered to calculate the TCID50. MT-2 cells were infected with a two fold dilutions of virus from NYAD-201 and NYAD-202 treated and untreated cells. […] On the fourth day post infection supernatants were collected for p24 quantification by sandwich-ELISA and the TCID50 was calculated by the Spearman-Karber statistical method. […]
For these reasons, not only the quantity but also the quality of the viral particles released in the supernatant was evaluated. First, the p24/viral particles released in the supernatant following NYAD-201 and NYAD-202 treatment were quantified, then starting with the same amount of p24 per sample, the viruses released in the supernatant were titered. The TCID50 was calculated and expressed as percentage infectivity with respect to the untreated positive control. […]

What is called CC50 is the concentration giving 50% cytotoxicity. Consider `CSCC[C@@H]1NC(=O)[C@H](Cc2c[nH]c3ccccc23)NC(=O)[C@@](C)(NC(=O)[C@H](CCCCN)NC(=O)[C@@H](NC(=O)[C@H](CCC(=O)O)NC(=O)[C@H](CCC(N)=O)NC(=O)[C@H](C)N)C(C)C)CCCC=CCCC[C@@](C)(C(=O)N[C@H](C(=O)N[C@@H](CC(C)C)C(=O)N[C@@H](CC(C)C)C(=O)N[C@H](C(=O)N[C@@H](C)C(N)=O)C(C)C)[C@@H](C)O)NC(=O)[C@H]([C@@H](C)O)NC1=O` [NYAD-201, AQEVKXWMTXTLLVA] (H-AQEVK[S5]WMT[S5]TLLVA-NH2; staple 6-10), for which the CC50 at 7 days in data set [1] was > 115 µM. In addition, in data set [2], the 50% cytotoxic concentration (CC50) at 4 days was > 115 µM. Also, the CC50 in data set [3] was > 115 µM. The IC50 in data set [4] was 5.6 ± 0.5 µM; in data set [5], 5.06 ± 1.37 µM. In data set [6], the “Percentage infectivity of virus produced by treated cells with respect to untreated control” value was determined as 50%.
